{"source": "patent US20240226059A1", "about": "“COMPOSITION FOR INHIBITING ANGIOGENESIS AND ENHANCING THERAPEUTIC EFFECT OF ANTICANCER DRUGS IN CANCER PATIENT” (KANT SCIENCE INC., priority 2020, published 2024)", "assay_type_in_all_cases": "cell-based", "key": {"Breast cancer cells [1]": {"test_system": "Breast cancer cells", "assay": "Intracellular acidity (pH) of breast cancer cells at normal or low glucose", "settings": "low-carbohydrate state (glucose 5 nM), in combination with paclitaxel (PTX); FIG. 1, FIG. 2", "method": "Breast cancer cells were cultured at a normal glucose (GLU) concentration of […] or a low concentration of […], and intracellular acidity was confirmed with or without the treatment of paclitaxel (PTX), which is an anticancer drug, and cariporide (CAR), which is a drug that regulates intracellular acidity."}, "Breast cancer cells [2]": {"test_system": "Breast cancer cells", "assay": "Cell viability of breast cancer cells at normal or low glucose", "settings": "low-carbohydrate state (glucose 5 nM), in combination with paclitaxel (PTX); FIG. 3", "method": "Breast cancer cells were cultured at a normal glucose (GLU) concentration of […] or a low concentration of […], and cell viability was confirmed with and without the treatment of paclitaxel (PTX), which is an anticancer drug, and cariporide (CAR) or curcumin (CUR)."}, "colorectal cancer cells": {"test_system": "colorectal cancer cells", "assay": "Anticancer drug resistance (GR50 ratio) of colorectal cancer cells at high or low glucose", "settings": "low glucose (5 nM), in combination with irinotecan; FIG. 4", "method": "Furthermore, colorectal cancer cells were cultured at a high glucose concentration ([…]) or a low glucose concentration ([…]), and it was confirmed by a growth rate 50 ratio (GR50 ratio) while treating irinotecan, which is an anticancer drug, and cariporide in combination whether the cancer cells had anticancer drug resistance."}}, "note": "“Also recorded” adds a separate entry of the source."}
{"molecule": "CC(C)c1ccc(C(=O)NC(=N)N)cc1S(C)(=O)=O", "note": "[cariporide]", "values": [{"measurement": "intracellular acidity", "setting": "Breast cancer cells [1]", "result": "maintained normal pH; also recorded: closest to normal"}, {"measurement": "anticancer effect (cell viability)", "setting": "Breast cancer cells [2]", "result": "best anticancer effect"}, {"measurement": "anticancer drug resistance (growth rate 50 ratio, GR50 ratio)", "setting": "colorectal cancer cells", "result": "overcome anticancer drug resistance"}, {"measurement": "cell viability", "setting": "colorectal cancer cells", "result": "significantly reduce cell viability"}]}
{"molecule": "COc1cc(/C=C/C(=O)CC(=O)/C=C/c2ccc(O)c(OC)c2)ccc1O", "note": "[curcumin]", "values": [{"measurement": "intracellular acidity", "setting": "Breast cancer cells [1]", "result": "same effect as cariporide; also recorded: closest to normal"}, {"measurement": "anticancer effect (cell viability)", "setting": "Breast cancer cells [2]", "result": "best anticancer effect"}]}
